# Laboratory results from US6825176B2, “E2 displacement assay for identifying inhibitors of HPV” (Boehringer Ingelheim (Canada) Ltd., priority 2002, dated 2004).
# Key:
# [1] = target: T1, transactivation domain of HPV11 E2 (TAD) (Human papillomavirus 11, UniProt P04015); assay: HPV E2 transactivation domain (TAD) ligand displacement assay; assay type: binding
# T1 construct: HPV11 E2 amino acids 2* -215 (*Met-1 removed); made in house; host or cells: E. coli BL21 (DE3)pLysS, plasmid pET23a(+)
# From the text: This assay measures the binding of a radiolabeled compound (“probe”) to the transactivation domain of HPV11 E2 (TAD). The protein binds to Ni-coated Flash plates, and the measured signal being proportional to the concentration of bound probe. If a test compound binds to the TAD, it will displace the probe, which will result in a lower signal.
# (§1) HPV-11 TAD: HPV11 E2 amino acids 2* -215 (*Met-1 removed) with an amino terminal epitope tag derived from the T7 phage gene 10 protein and a C-terminal His tag (SEQ ID NO.2). Total MW is 27 kDa.
# 25 mM MOPS, pH 7.0; 100 mM NaCl; 1 mM DTT; 0.0025% Tween-20. The pH was verified before adding DTT and Tween, and was adjusted where necessary. […]
# TAD was diluted to 300 nM in assay buffer and used 20 μL […] dilution per well. […] This has a measurable effect on signal: background but little effect on z′ or measured inhibition (J.-H. Zhang, et al., 1999, J. Biomolecular Screening v4(2), 67-73). […]
# The assay was performed in 96-well FlashPlates (PE/NEN). […] Plates were then sealed with TopCount-compatible sealing film, shaken briefly, incubated at room temperature, then counted on the TopCount after 3 hrs and again at 20 hrs.
# The assay was run as described in Example 6. For each inhibitor concentration, the percent inhibition observed was calculated and the resulting inhibition curve was fit to a logistic using SAS. […]
# [2] = target: T1, transactivation domain of HPV11 E2 (TAD); assay: isothermal titration calorimetry of probe binding to the TAD; details: isothermal titration calorimetry with its non-tritiated homolog
# Procedure: Radiolabeled probe: The tritium labeled probe 1j binds to the TAD with a Kd of 40 nM, as determined by isothermal titration calorimetry with its non-tritiated homolog.
# as §1
# T1 sequence (P04015 2-215): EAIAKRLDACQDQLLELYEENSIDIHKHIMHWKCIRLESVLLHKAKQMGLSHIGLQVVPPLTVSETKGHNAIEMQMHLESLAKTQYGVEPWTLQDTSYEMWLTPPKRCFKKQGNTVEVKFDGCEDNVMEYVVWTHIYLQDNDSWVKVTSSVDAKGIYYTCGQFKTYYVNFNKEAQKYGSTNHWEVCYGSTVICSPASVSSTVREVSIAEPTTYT
SMILES,"IC50 ([1]; counting at 20 hours, 50 nM TAD, 25 nM probe, FIG. 5) [µM]","IC50 ([1]; standard inhibitor, racemic mixture) [µM]",Kd [2] [µM]
O=C(Nc1ccc2c(c1)OCO2)C1C(c2ccc(Cl)cc2)OC2(C(=O)c3ccccc3C2=O)C1C(=O)O (racemic) [Compound 3h],4 ± 0.6,~10,–
CC(=O)NCc1ccc(N2C(=O)[C@H]3[C@@H](C2=O)[C@@]2(O[C@H]3c3ccc(Br)c(Br)c3)C(=O)c3cc(C)sc3C2=O)cc1 [Compound 1j],–,–,0.04
